Measured values reported in US20250325687A1, “CONJUGATE COMPRISING TOLL-LIKE RECEPTOR AGONIST” (MABSOFT THERAPEUTICS (SHANGHAI) CO., LTD., priority 2022, published 2025).

Columns and labels:
[1] = target: T1, hTLR7 (human Toll-like receptor 7) (Homo sapiens, UniProt Q9NYK1); experiment: hTLR7 cell assay (HEK-Blue hTLR7 reporter cells); assay type: cell-based; conditions: 24 hours, OD 650 nm
T1 construct: host or cells: HEK-Blue hTLR7 (HEK293-derived reporter cells)
T1 sequence (Q9NYK1 27-1049): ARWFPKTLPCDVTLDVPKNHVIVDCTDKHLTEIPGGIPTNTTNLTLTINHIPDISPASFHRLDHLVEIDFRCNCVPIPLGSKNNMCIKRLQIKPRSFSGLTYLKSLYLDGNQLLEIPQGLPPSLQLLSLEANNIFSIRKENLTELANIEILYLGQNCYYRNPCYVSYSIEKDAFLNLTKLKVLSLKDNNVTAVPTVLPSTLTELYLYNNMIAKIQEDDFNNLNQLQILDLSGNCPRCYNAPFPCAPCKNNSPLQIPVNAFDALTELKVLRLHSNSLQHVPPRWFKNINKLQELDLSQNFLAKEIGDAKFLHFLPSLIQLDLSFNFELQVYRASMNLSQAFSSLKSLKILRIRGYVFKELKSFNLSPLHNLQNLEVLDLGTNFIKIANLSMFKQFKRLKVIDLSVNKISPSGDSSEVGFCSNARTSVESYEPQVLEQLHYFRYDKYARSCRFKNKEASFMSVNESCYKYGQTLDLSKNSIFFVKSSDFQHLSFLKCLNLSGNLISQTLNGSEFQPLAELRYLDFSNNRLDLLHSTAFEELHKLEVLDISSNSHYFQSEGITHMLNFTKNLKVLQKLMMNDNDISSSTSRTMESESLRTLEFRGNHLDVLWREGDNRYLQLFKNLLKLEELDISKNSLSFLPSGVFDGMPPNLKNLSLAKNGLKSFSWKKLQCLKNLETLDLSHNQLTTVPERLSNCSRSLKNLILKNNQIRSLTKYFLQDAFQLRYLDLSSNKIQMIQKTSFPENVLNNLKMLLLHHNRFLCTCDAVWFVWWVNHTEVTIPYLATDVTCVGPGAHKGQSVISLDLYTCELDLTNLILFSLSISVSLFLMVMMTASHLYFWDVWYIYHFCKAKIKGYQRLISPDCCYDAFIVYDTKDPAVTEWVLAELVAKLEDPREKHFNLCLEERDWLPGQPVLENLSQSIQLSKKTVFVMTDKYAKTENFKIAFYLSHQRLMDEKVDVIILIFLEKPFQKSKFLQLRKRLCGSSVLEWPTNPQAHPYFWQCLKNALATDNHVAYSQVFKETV
Description: (§1) The payload compounds of Formula (II′) were assayed to evaluate their agonistic activity on hTLR7 (human Toll-like receptor 7) and hTLR8 (human Toll-like receptor 8). Reporter cells lines (HEK-Blue hTLR7 and HEK-Blue hTLR8) were obtained from InvivoGen. Cells were cryopreserved in liquid nitrogen per supplier's instruction. Upon test, the cells were thawed, passaged and cultured in the growth media of DMEM supplemented with 10% fetal bovine serum, 1×NEAA, 1 mM Pyruvate, 2 mM glutamine, […] in the presence of the following antibiotics, as shown as Table 1. Test compounds (at desired concentrations diluted) were added to the 96-well assay plate, 0.5 μL per well. Reporter cells were harvested from the tissue culture flasks by incubation in PBS at 37° C. for two minutes after the media in the flask is removed and cells rinsed with PBS. Cells were counted and diluted in the HEK-Blue Detection media at 50000 cells/mL and incubated for 24 hours at 37° C., in a 5% CO2 humidified incubator. Then 20 μL of cell supernatant were added to the assay plate containing the 180 µL of QUANTI-Blue, incubated for 1 hour at 37° C. Optical density at 650 nm was analyzed using an Envision (Perkin Elmer) plate reader.

[2] = target: T2, hTLR8 (human Toll-like receptor 8) (Homo sapiens, UniProt Q9NR97); experiment: hTLR8 cell assay (HEK-Blue hTLR8 reporter cells); assay type: cell-based; conditions: 24 hours, OD 650 nm
T2 construct: host or cells: HEK-Blue hTLR8 (HEK293-derived reporter cells)
T2 sequence (Q9NR97 27-1041): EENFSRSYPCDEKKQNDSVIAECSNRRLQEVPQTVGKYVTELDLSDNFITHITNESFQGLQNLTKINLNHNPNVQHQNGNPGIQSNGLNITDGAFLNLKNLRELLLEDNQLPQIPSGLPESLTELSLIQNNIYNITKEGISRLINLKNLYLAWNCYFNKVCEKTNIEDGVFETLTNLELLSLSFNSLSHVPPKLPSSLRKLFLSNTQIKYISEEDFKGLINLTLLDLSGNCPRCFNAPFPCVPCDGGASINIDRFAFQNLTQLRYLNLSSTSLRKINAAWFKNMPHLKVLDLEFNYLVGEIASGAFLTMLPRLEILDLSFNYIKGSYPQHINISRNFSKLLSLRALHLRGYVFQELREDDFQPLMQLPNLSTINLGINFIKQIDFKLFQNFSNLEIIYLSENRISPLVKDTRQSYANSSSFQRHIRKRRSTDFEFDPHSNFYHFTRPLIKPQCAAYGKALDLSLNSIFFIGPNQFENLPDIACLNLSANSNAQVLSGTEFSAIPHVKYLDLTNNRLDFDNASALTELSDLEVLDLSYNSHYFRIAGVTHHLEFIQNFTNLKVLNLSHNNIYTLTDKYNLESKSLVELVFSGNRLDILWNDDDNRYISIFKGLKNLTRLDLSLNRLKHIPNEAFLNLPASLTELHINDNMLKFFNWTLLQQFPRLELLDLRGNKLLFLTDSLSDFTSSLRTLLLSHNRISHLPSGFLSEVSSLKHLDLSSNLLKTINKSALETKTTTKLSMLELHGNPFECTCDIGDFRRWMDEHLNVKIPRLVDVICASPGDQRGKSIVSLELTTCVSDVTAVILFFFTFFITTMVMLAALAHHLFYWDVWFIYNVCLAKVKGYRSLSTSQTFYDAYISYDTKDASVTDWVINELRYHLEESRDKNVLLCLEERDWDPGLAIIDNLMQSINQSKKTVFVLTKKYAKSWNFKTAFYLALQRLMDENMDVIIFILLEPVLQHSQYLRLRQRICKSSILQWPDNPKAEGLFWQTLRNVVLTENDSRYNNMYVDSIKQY
Description: as §1

Row | EC50 [1] [µM] | EC50 [2] [µM] | SMILES
1 | > 10 | > 20 | CCOCc1nc2c(N)nc3cc(Cc4ccc(CCN)cc4)ccc3c2n1CC1(O)CC1 [Compound 47, 1-((4-amino-7-(4-(2-aminoethyl)benzyl)-2-(ethoxymethyl)-1H-imidazo[4,5-c]quinolin-1-yl)methyl)cyclopropan-1-ol]
2 | 1 to 10 | > 20 | CCOCc1nc2c(N)nc3cc(Cc4ccc(CCN)cc4)ccc3c2n1Cc1ccc(CO)cc1 [Compound 45, (4-((4-amino-7-(4-(2-aminoethyl)benzyl)-2-(ethoxymethyl)-1H-imidazo[4,5-c]quinolin-1-yl)methyl)phenyl) methanol]
3 | 1 to 10 | < 5 | CCCC(C)c1nc2c(N)nc3cc(Cc4ccc(CCCN)cc4)ccc3c2n1CC(C)(C)O (stereo not drawn) [Compound 11, 1-(4-amino-7-(4-(3-aminopropyl)benzyl)-2-(pentan-2-yl)-1H-imidazo[4,5-c]quinolin-1-yl)-2-methylpropan-2-ol]
4 | 1 to 10 | < 5 | CCCC(C)c1nc2c(N)nc3cc(Cc4cccc(CN)c4)ccc3c2n1CC(C)(C)O (stereo not drawn) [Compound 12, 1-(4-amino-7-(3-(aminomethyl)benzyl)-2-(pentan-2-yl)-1H-imidazo[4,5-c]quinolin-1-yl)-2-methylpropan-2-ol]
5 | 1 to 10 | > 20 | CCOCc1nc2c(N)nc3cc(Cc4ccc(CC(N)=O)cc4)ccc3c2n1CC(C)(C)OCCN [Compound 27, 2-[4-({4-amino-1-[2-(2-aminoethoxy)-2-methylpropyl]-2-(ethoxymethyl)imidazo[4,5-c]quinolin-7-yl}methyl)phenyl]acetamide]
6 | < 1 | > 20 | CCOCc1nc2c(N)nc3cc(Cc4ccc(CCN)cc4)ccc3c2n1CC(C)(C)OCCO [Compound 72, 2-((1-(4-amino-7-(4-(2-aminoethyl)benzyl)-2-(ethoxymethyl)-1H-imidazo[4,5-c]quinolin-1-yl)-2-methylpropan-2-yl)oxy)ethan-1-ol]
7 | < 1 | > 20 | CCOCc1nc2c(N)nc3cc(Cc4ccc(CCN)cc4)ccc3c2n1CC(C)(C)OCCNC(=O)C(C)(C)N [Compound 21]
8 | > 10 | 5 to 20 | CCCC(C)c1nc2c(N)nc3cc(Cc4ccc(CCN)cc4)ccc3c2n1CC(C)(C)OC (stereo not drawn) [Compound 48, 7-(4-(2-aminoethyl)benzyl)-1-(2-methoxy-2-methylpropyl)-2-(pentan-2-yl)-1H-imidazo[4,5-c]quinolin-4-amine]
9 | < 1 | < 5 | CCCCc1nc2c(N)nc3cc(Cc4ccccc4)ccc3c2n1CC(C)(C)OCCN [Compound 31]
10 | 1 to 10 | 5 to 20 | CCCC(C)c1nc2c(N)nc3cc(Cc4cccc(CCCN)c4)ccc3c2n1CC(C)(C)O (stereo not drawn) [Compound 14, 1-(4-amino-7-(3-(3-aminopropyl)benzyl)-2-(pentan-2-yl)-1H-imidazo[4,5-c]quinolin-1-yl)-2-methylpropan-2-ol]
11 | 1 to 10 | > 20 | CCOCc1nc2c(N)nc3cc(Cc4ccc(CC(N)=O)cc4)ccc3c2n1CCNS(C)(=O)=O [Compound 35, 2-(4-((4-amino-2-(ethoxymethyl)-1-(2-(methylsulfonamido)ethyl)-1H-imidazo[4,5-c]quinolin-7-yl)methyl)phenyl)acetamide]
12 | > 10 | > 20 | CCC[C@H](C)c1nc2c(N)nc3cc(Cc4ccc(CCN)cc4)ccc3c2n1CC(C)(C)O [Compound 10, (S)-1-(4-amino-7-(4-(2-aminoethyl)benzyl)-2-(pentan-2-yl)-1H-imidazo[4,5-c]quinolin-1-yl)-2-methylpropan-2-ol]
13 | 1 to 10 | > 20 | CCOCc1nc2c(N)nc3cc(Cc4ccccc4)ccc3c2n1CC1CC(CN)C1 (stereo not drawn) [Compound 40, 1-((3-(aminomethyl)cyclobutyl)methyl)-7-benzyl-2-(ethoxymethyl)-1H-imidazo[4,5-c]quinolin-4-amine]
14 | > 10 | > 20 | CCOCc1nc2c(N)nc3cc(Cc4ccccc4)ccc3c2n1CCC(O)C(F)(F)F (stereo not drawn) [Compound 46, 4-(4-amino-7-benzyl-2-(ethoxymethyl)-1H-imidazo[4,5-c]quinolin-1-yl)-1,1,1-trifluorobutan-2-ol]
15 | 1 to 10 | < 5 | CCCC(C)c1nc2c(N)nc3cc(Cc4ccc(CCN)cc4)ccc3c2n1CC(C)(C)O (stereo not drawn) [Compound 8, 1-(4-amino-7-(4-(2-aminoethyl)benzyl)-2-(pentan-2-yl)-1H-imidazo[4,5-c]quinolin-1-yl)-2-methylpropan-2-ol]
16 | > 10 | > 20 | CCOCc1nc2c(N)nc3cc(Cc4ccc(CCN5CCCC5)cc4)ccc3c2n1CC(C)(C)OCCN [Compound 25, 1-(2-(2-aminoethoxy)-2-methylpropyl)-2-(ethoxymethyl)-7-(4-(2-(pyrrolidin-1-yl)ethyl)benzyl)-1H-imidazo[4,5-c]quinolin-4-amine]
17 | > 10 | > 20 | CCOCc1nc2c(N)nc3cc(Cc4ccccc4)ccc3c2n1CC(C)(C)N [Compound 38, 1-(2-amino-2-methylpropyl)-7-benzyl-2-(ethoxymethyl)-1H-imidazo[4,5-c]quinolin-4-amine]
18 | > 10 | > 20 | CCOCc1nc2c(N)nc3cc(Cc4ccc(CN)cc4)ccc3c2n1CC(C)(C)O [Compound 1, 1-(4-amino-7-(4-(aminomethyl)benzyl)-2-(ethoxymethyl)-1H-imidazo[4,5-c]quinolin-1-yl)-2-methylpropan-2-ol]
19 | > 10 | 5 to 20 | CCOCc1nc2c(N)nc3cc(Cc4ccccc4)ccc3c2n1CCCCN [Compound 39, 1-(4-aminobutyl)-7-benzyl-2-(ethoxymethyl)-1H-imidazo[4,5-c]quinolin-4-amine]
20 | 1 to 10 | 5 to 20 | CCOCc1nc2c(N)nc3cc(Cc4cccc(CCN)c4)ccc3c2n1CC(C)(C)O [Compound 5, 1-(4-amino-7-(3-(2-aminoethyl)benzyl)-2-(ethoxymethyl)-1H-imidazo[4,5-c]quinolin-1-yl)-2-methylpropan-2-ol]
21 | < 1 | 5 to 20 | CCOCc1nc2c(N)nc3cc(Cc4ccccc4)ccc3c2n1Cc1ccc(CN)cc1 [Compound 43]
